“Also recorded” adds a separate entry of the source.
Columns and labels:
[1] = system: melanoma; assay: Pilot biomarker clinical study of S-equol in melanoma (Example 7, present tense); format: in vivo, human; conditions: melanoma patients, oral S-equol 50 mg twice daily 10-21 days
Description: A pilot biomarker clinical study is performed in 20 subjects with documented melanoma to determine the effect of the ERβ agonist S-equol on Ki67 an indicator of tumor cell proliferation. Tumor cell proliferation is measured by immunohistological staining for Ki-67. Ki-67 is encoded by the gene MKI67 gene and is required to maintain individual mitotic chromosomes dispersed in the cytoplasm following nuclear envelope disassembly. Measuring the fraction of Ki-67-positive cells in a tumor is known to be a reliable parameter for assessing cancer patient prognosis. Subjects with TNBC are known to have very high levels of Ki67.
Patients enrolled in the study receive a history, physical, laboratory assessment, radiological imaging, and diagnostic biopsies. Immunohistochemistry (IHC) of Ki67 (proliferation marker), total ERβ, and pY36-ERβ (phosphorylated ERβ), B7H1 (also known as PDL-1) and MIA and S100B are conducted using core needle biopsy tissue samples prior to treatment. Patients are given oral S-equol 50 mg, twice daily for approximately two weeks (10-21 days) prior to the scheduled oncologic surgeries or start of primary systemic therapy. […]
A standard procedure for acquiring core biopsy is utilized for determining melanoma prior to enrollment. […] The tissue samples are sent for staining of total and pY36, ERβ and Ki67, and analyzed. […]

[2] = molecular target: T1, ERβ (Mus musculus, UniProt O08537); assay: TCR activated ERβ tyrosine phosphorylation after anti-CD3/CD28 stimulation (IP-Western blot); format: cell-based; conditions: anti-CD3/CD28-stimulated cells, pretreated with S-equol for 4 hrs (FIG. 26A)
T1 construct: endogenous in cells; b180 instead says mouse 'EF4' (probably EL4) lymphoma cells
From the text: FIG. 26. ERβ agonist S-equol promotes CD8+ T cell activation and antitumor immunotherapy. […] FIGS. 26B and 26C show B16 melanoma growth and tumor weight from wild type C57BL/6J male mice with four arm treatments. Vehicle+α-IgG, 5-equol+α-IgG, Vehicle+α-PD-1, S-equol+α-PD-1. […] Vehicle+α-IgG, S-equol+α-IgG, Vehicle+α-PD-1, S-equol+α-PD-1. GSEA analysis in ERβ-high versus ERβ-low human melanoma TILs (tumor infiltrating lymphocytes). The enrichment of (FIG. 26F) NFAT pathway and (FIG. 26G) TNFα signaling were evaluated.
Cells were stained and sorted as previously described (Clark, 2016), using LSR II and FACSAria hardware and analyzed by FACSDiva (BD Bioscience) and FlowJo software (FlowJo, LLC). CD8+ T cell isolation and in vitro activationCD8+ T cells were isolated from the spleens under aseptic conditions. Individual spleens were homogenized to release splenocytes. […] Single-cell suspensions from individual spleens were pooled, filtered through 70 μm and 40 μm cell strainer (Fisher) and counted. […]
Isolated mouse spleen and bone marrow were lysed in RIPA Lysis and 218 Extraction Buffer. Protein amounts were determined by using Pierce BCA Protein Assay Kits (Pierce, Cat: #23225). […] Proteins were detected with ECL SuperSignal™ West Pico PLUS Chemiluminescent Substrate (Thermo Fisher, Cat. #34580).

[3] = system: B16; assay: B16 tumors in mice with subcutaneous S-equol (Example 6, present tense); format: in vivo, mouse; conditions: B16 cells, daily s.c. S-equol 20 or 60 mg/kg per day vs PBS
Description: Further work in a preclinical animal model supports the notion of using S-equol to treat melanoma. In immunocompromised mouse experiments, using B16, a murine tumor cell line know to be useful to study human melanoma metastasis and solid tumor formation, growth of tumors is suppressed with S-equol treatment compared to control. 0.5×10^6 B16 cells are injected into normal BL mice. When the tumor masses reach 50 to 80 mm^3 (about one week after the inoculation), the mice are given daily subcutaneous injections of S-equol (20 or 60 mg/kg per day) or PBS as a vehicle control. Tumor development is followed by caliper measurements along two orthogonal axes: length (L) and width (W) and volume (V) is estimated by the formula V=[L×(W^2)]/2. Tumors harvested from mice are fixed in 10% neutral-buffered formalin, dehydrated, embedded in paraffin, and sectioned at 3 μm thickness. Representative tumor sections from vehicle control and S-equol-treated mice are tested for Ki-67 expression to assess cell proliferation, and for ERβ pY36. Statistical significance in the experiments is assessed by two-tailed Student's t test. In all assays, p<0.05 is considered statistically significant.

T1 sequence (O08537 whole entry): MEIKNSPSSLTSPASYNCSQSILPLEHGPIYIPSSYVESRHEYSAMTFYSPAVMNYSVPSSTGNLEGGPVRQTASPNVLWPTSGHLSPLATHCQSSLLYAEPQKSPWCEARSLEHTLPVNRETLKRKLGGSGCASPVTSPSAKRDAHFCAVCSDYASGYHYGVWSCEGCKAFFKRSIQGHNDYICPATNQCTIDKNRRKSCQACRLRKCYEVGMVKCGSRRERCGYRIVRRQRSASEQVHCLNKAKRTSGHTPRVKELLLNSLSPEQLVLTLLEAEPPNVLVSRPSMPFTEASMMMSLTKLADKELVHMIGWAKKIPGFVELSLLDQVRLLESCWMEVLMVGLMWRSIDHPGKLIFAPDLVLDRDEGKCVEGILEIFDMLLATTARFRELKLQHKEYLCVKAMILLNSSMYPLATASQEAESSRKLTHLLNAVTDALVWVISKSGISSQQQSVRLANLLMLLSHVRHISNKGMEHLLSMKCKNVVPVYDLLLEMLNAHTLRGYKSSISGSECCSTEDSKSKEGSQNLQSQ

For `Oc1ccc([C@H]2COc3cc(O)ccc3C2)cc1` [S-equol], the “change in Ki67 pre- vs post-treatment (in words)” value [1] was “measurable decrease in Ki67; also recorded: measurable decline in Ki67”, the “TCR activated ERβ tyrosine phosphorylation” value [2] was “further enhanced” and the “growth of tumors compared to control” value [3] was “suppressed”.

Source: patent US12070444B2, “Modulation of molecular markers using S-equol” (Board of Regents, The University of Texas System, priority 2020, dated 2024)
